For assay [1], the system named is breast (MCF-7) and (LS-174T) colon cancer cell lines. In words: growth inhibition of breast (MCF-7) and colon (LS-174T) cancer cell lines. In kind it is cell-based, human. Particulars: 50 micromolar.
For assay [2], the system named is LS-174T colon cancer line. In words: growth inhibition and release from inhibition, LS-174T (FIG. 3). In kind it is cell-based, human. On the procedure:
1×10^5 cells/60 mm dish were seeded, and 24 hours later (Day 0), the medium was removed and fresh medium and additives were added then and every 48 hours thereafter. […] The triplicate cell count for each experimental point never varied by more than 10%.
(§1) All breast cancer cell lines were grown in IMEM supplemented with 10% fetal bovine serum, 20 mM HEPES, penicillin-streptomycin, and extra glutamine. Colon carcinoma cell lines were grown in EMEM supplemented with 10% FBS, EMEM, NEAA, HEPES 20 mM, extra glutamine, and penicillin-streptomycin. The cells were grown at 37° C. in humidified incubators in an atmosphere of 5% CO2.

The subject of assay [3] is LS-174T colon cancer cells. In words: cell cycle analysis, LS-174T. In kind it is cell-based, human. The following applies: 8-Cl-adenosine 5 μM, 3 days, two separate experiments. On the procedure: (§2) DNA histograms were generated on FACS II by using the DNA intercalating dye propidium iodide as described by Braylan et al. (Cytometry 2: 337-343, 1982). The percentage of cells in each cycle phase was calculated by using a PDP-11/34 computer and software as described by Neckers et al. (Mol. Cell. Biol. 6: 4244-4250, 1986).
Breast (MCF-7, MDA-MB-231) and colon (LS-174T) cancer cells in
log phase (untreated control) and 3 days after treatment with
(5 μM) were analyzed for DNA content by flow cytometric analysis

Assay [4] deals with breast and colon cancer cell lines. Description: cell cycle progression of breast and colon cancer cell lines. In kind it is cell-based, human. Particulars: vs untreated control cells. On the procedure:
as §2
A determination was made whether the reduced cell proliferation observed in the cancer cell lines after treatment with the compounds of the present invention is due to a specific block in one phase of the cell cycle.

The subject of assay [5] is p21 ras protein (MCF-7 cells). In words: Western blotting of p21 ras protein in MCF-7 cells. In kind it is cell-based, human. The following applies: 5 microM. On the procedure: (§3) Western blotting of p21 protein was performed as described below. […] V is cell lysate from Ha-MuSV-transformed NIH3T3 clone 13-3B-4. M, marker proteins of known molecular weight.
Cellular proteins present in cell extracts were separated by 12% SDS-PAGE and transferred to nitrocellulose sheets in transfer buffer (25 mM Tris, 192 mM glycine, 20% methanol, pH 7.4). Nitrocellulose sheets were washed and first incubated with 3% bovine serum albumin in NTE-NP40 (50 mM Tris-HCl, pH 7.5, 150 mM NaCl, 2 mM EDTA, 0.1% Nonidet P-40) for three hours at 37° C. and then sequentially incubated with medium containing p21 monoclonal antiserum Y13-259 directed against the Ha-MuSV-encoded p21 for sixteen hours at 4° C., rabbit anti-rat IgG for 2.5 hours in an ice-water bath, and 5×10^5 cpm/ml ^125 I-protein A for one hour in an ice-water bath. The nitrocellulose sheets were air-dried and exposed to Kodak XAR film for 12-36 hours at -20° C. Comparison of the resulting autoradiograms with others in which normal rat serum was substituted for p21 monoclonal antibody permitted identification of p21. To provide a reference p21, cell lysates were prepared from NIH 3T3 clone 13-3B-4 that had been transfected with Ha-MuSV DNA.
The levels of p21 protein are expressed relative to the p21 level in the untreated control cells, which is set equal to 1.0 O.D.

A further assay deals with MCF-7 cells. Description: growth of MCF-7 cells. In kind it is cell-based, human. The following applies: 5 microM. On the procedure: as §3, §1
(§4) For cell growth experiments, 2-3×10^5 cells/60 mm dish were seeded, and 24 hours later (Day 0), the medium was removed, and fresh medium and the additives were added then and every 48 hours thereafter The compounds of the present invention were added using 100× concentrated stock solutions. At desired times, cell counts in duplicate were performed on a Coulter counter after harvesting the cells with gentle trypsinization.

Assay [6] concerns R^I cAMP receptor protein (Molt-4). Description: R^I cAMP receptor protein in Molt-4 leukemic cells. In kind it is cell-based, human. The following applies: growth-arrested by 8-Cl-adenosine (5 micromol/L). From the text:
(§5) M marker proteins of known molecular weight. […] The resulting supernatants were used as cell lysates. […] ND=nondetectable.

The next assay concerns c-myc protein. Description: c-myc protein level, Western blotting (FIG. 9B). In kind it is cell-based, human. Particulars: growth-arrested by 8-Cl-adenosine (5 micromol/L). The protocol: The cells were grown in suspension culture in RPMI 1640 medium supplemented with 10% fetal bovine serum, penicillin (50 U/ml), streptomycin ([…]), 10 mmol/L HEPES buffer, and extra glutamine. […] Surface antigen analysis of HL-60 cells was performed by flow cytometry using a panel of monoclonal antibodies reactive with either myeloid cells or monocytic cells. Terminal deoxynucleotidyl transferase (TdT) was assayed by an immunoperoxidase method using a TdT fluorescence kit. Western blotting of c-myc protein was performed using c-myc antibody 15206D11 (Scripps Clinic and Research Foundation, LaJolla, Calif.).
as §5
On the technique in general: In western blotting, separated proteins are transferred to a membrane and probed.

Another assay concerns R^II. The following applies: cited from earlier work.
The subject of a further assay is R^I receptor. Particulars: cited from earlier work.
For assay [7], the system named is disseminated neuroblastomas. Particulars: in a combined drug regimen; cited from earlier work.
The test system of a further assay is cells. In words: growth inhibition by 8-Cl-AMP. In kind it is cell-based. Particulars: as high as 100 microM.
For assay [8], the system named is hormone-dependent breast cancer lines. Particulars: millimolar concentrations; previously reported; cited from earlier work.
A further assay relates to YAC lymphoma cell. The following applies: mouse, in vivo; cited from earlier work.
Assay [9] has as its system MCF-7 ras breast cancer cell line. Description: synergistic growth inhibition by C-6 and C-8 analogue combination. In kind it is cell-based. Particulars: Homo sapiens, MCF7; alone, 0.5 μM; read-out: percentage growth inhibition of analogue added alone. The protocol:
as §1, §4
Synergism quotient was defined as the net growth inhibitory effect of the analogue combination divided by the sum of the net analogue effects on growth inhibition A quotient of >1 indicates a synergistic effect, while a quotient of <1 indicates an antagonistic effect.
Synergism of growth inhibition was determined by treatment of
cells with C-6 analogues and C-8 analogues alone and in combination at
Day 0 and Day 2 and counting the cell number at Day 4

Assay [10] has as its system breast and colon cancer cells. In words: effect on cell morphology. In kind it is cell-based, human. From the text:
The photographs were taken on Day 4, ×160.
Furthermore, the synergistic growth inhibitory effect of C-6 and C-8 analogue combinations was also reflected in the change in the cell morphology.

The subject of assay [11] is R^I cAMP receptor protein (MDA-MB-231). Description: photoaffinity labelling of R^I cAMP receptor protein, MDA-MB-231. In kind it is cell-based, human. Particulars: 10 microM, 3 days; control 1.0. The protocol: (§6) M is marker proteins of known molecular weight.
(§7) The incubations were carried out at 23° C. for 60 minutes in 96-well immunoplates. The reaction mixtures were then irradiated for 30 seconds at 254 nm, placing a Mineralite UVS-11 hand lamp directly onto the plate. The samples were mixed with 25 microliters of 3× sample buffer (3% SDS, 15% beta-mercaptoethanol, 30 mM Tris, 30% glycerol, 1% bromophenol blue saturated solution), boiled for 3 minutes, and centrifuged at 700×g for five minutes. The samples containing 50-100 micrograms of protein were subjected to 0.05% SDS-12% PAGE. The gels were fixed, dried, and exposed to X-ray films overnight. The protein concentrations were determined by the method of Lowry et al., (J. Biol. Chem. 193: 265-275, 1951) with bovine serum albumin as standard.
(§8) The levels of the receptor proteins are expressed relative to the R^I level in the untreated control cells of MDA-MB-231 and LS-174T, which are each set equal to 1.0 O.D.; the scale was expanded to differentiate the lower intensity bands.

For assay [12], the system named is R^II cAMP receptor protein (MDA-MB-231). Description: photoaffinity labelling of R^II cAMP receptor protein, MDA-MB-231. In kind it is cell-based, human. Particulars: 10 microM, 3 days; relative to control R^I. On the procedure:
as §6, §7, §8

Assay [13] concerns R^I cAMP receptor protein (LS-174T). Description: photoaffinity labelling of R^I cAMP receptor protein, LS-174T. In kind it is cell-based, human. Particulars: 10 microM, 3 days; control 1.0. On the procedure: as §6, §7, §8
The test system of assay [14] is R^II cAMP receptor protein (LS-174T). In words: photoaffinity labelling of R^II cAMP receptor protein, LS-174T. Particulars: 10 microM, 3 days; relative to control R^I. In kind it is cell-based, human. The protocol: as §6, §7, §8
The subject of the next assay is MDA-MB-231. In words: growth of MDA-MB-231 cells. In kind it is cell-based. The following applies: Homo sapiens, MDA-MB-231, 72 h; 10 microM, 3 days. On the procedure:
as §6, §1, §4

Another assay concerns LS-174T. In words: growth of LS-174T cells. In kind it is cell-based. The following applies: Homo sapiens, LS174T, 72 h; 10 microM, 3 days. The protocol:
as §6, §1, §4

For assay [15], the system named is R^I and R^II cAMP receptor proteins in breast (MDA-MB-231) and colon (LS-174T) cancer cells. In words: R^I and R^II cAMP receptor protein levels in breast and colon cancer lines (FIG. 6). In kind it is cell-based, human. The protocol:
as §6, §7

Data on 8 compounds can be found in US5902794A (priority 1997, dated 1999).

As for `O=P1(O)OC[C@H]2O[C@@H](n3c(Sc4ccc(Cl)cc4)nc4c(Nc5ccccc5)ncnc43)[C@H](O)[C@@H]2O1` [N^6-phenyl-8-p-chlorophenylthio-cAMP], the “growth inhibition, in words” value in [1] is “most potent growth inhibition among the C-6,-8 disubstituted analogues”.
`Nc1ncnc2c1nc(Cl)n2[C@@H]1O[C@H](CO)[C@@H](O)[C@H]1O` [8-Cl-adenosine, reference compound]: the “mechanism of growth inhibition / cell viability” value in assay [2] is listed as “cell killing”. Moreover, the “cell growth during treatment” value in [2] (8-Cl-cAMP 10 microM or 8-Cl-adenosine 5 microM) is listed as “marked reduction in cell growth”. For the same compound, in assay [2] (after removal of additives), the “growth after cessation of treatment” value was “remained growth-inhibited and did not resume their growth up to two weeks”. For the same compound, in assay [3], the “% Cell population in G1” value is 72,68%, the “% Cell population in G2 M” value is recorded as 20,18% and the “% Cell population in S” value is reported as 8,14%. Besides, the activity at 5 µM in assay [3] (Homo sapiens, LS174T, 72 h, read-out: % Growth) is 30.3%. The “fractions of cells in G1, S and G2/M phases, in words” value in [4] is reported as “appreciable increase of the cell population in Gl phase with a marked reduction in S-phase”. The “p21 level, in words” value in assay [5] is on record as “did not appreciably affect the p21 level”. In addition, the “growth inhibition, in words” value in the assay on MCF-7 cells is on record as “strong growth inhibition”. The “decrease in R^I receptor level” value in [6] is on record as “not observed”. Besides, in the assay with c-myc protein, the “decrease in c-myc protein level” value is given as “not observed”.
Consider `Nc1ncnc2c1nc(N1CCCCC1)n2[C@@H]1O[C@@H]2COP(=O)(O)O[C@H]2[C@H]1O` [8-piperidino-cAMP, reference compound], for which the “site selectivity of binding, R^II” value in the assay on R^II is given as “selectively binds to site 1”. Besides, in the assay with R^I receptor, the “site selectivity of binding, R^I” value is on record as “binds to site 2”.
As to `COc1ccc(Cc2nccc3cc(OC)c(OC)cc23)cc1OC` [papaverine], the clinical result in assay [7] was “promising results”.
Consider `Nc1ncnc2c1nc(Cl)n2[C@@H]1O[C@H](COP(=O)(O)O)[C@@H](O)[C@H]1O` [8-Cl-AMP], for which the growth inhibition entry in the assay on cells is listed as “no appreciable growth inhibition”.
In the case of `CCCC(=O)Nc1ncnc2c1ncn2[C@@H]1O[C@@H]2COP(=O)(O)O[C@H]2[C@H]1O` [N^6 -butyryl cAMP], the “growth inhibition, hormone-dependent breast cancer lines” value in assay [8] is given as “growth inhibition only in the hormone-dependent breast cancer lines”.
Take cholera toxin: the “inhibition of YAC lymphoma cell proliferation” value in the assay on YAC lymphoma cell is reported as “almost complete inhibition”.
As for `O=P1(O)OC[C@H]2O[C@@H](n3cnc4c(NCc5ccccc5)ncnc43)[C@H](O)[C@@H]2O1` [N^6 -benzyl-cAMP], in assay [9], the inhibition at 0.5 µM came to 15%. Further, the morphological change result was “did not induce a change in the cell morphology” in assay [10] (0.5 microM alone, four days) and “induced the morphological change” in [10] (50 microM, three to four days). Moreover, the “fractions of cells in G1, S and G2/M phases, in words” value in [4] is recorded as “not appreciably different”. For the same compound, the “R^I relative level” value in assay [11] is on record as 0.25 ± 0.03; in assay [13], 0.20 ± 0.02. Further, the “R^II relative level” value in assay [12] worked out at 0.07 ± 0.01; in assay [14], 0.25 ± 0.02. Also, the activity at 10 µM in the assay on MDA-MB-231 stood at 55%; in the assay on LS-174T, 35%. In addition, the “increase in the ratio of R^II to R^I” value in [15] (densitometry) is “two- to three-fold increase”. Moreover, the “48,000 R^I receptor protein, in words” value in [15] (three days, 10 microM) is listed as “concomitant decrease”. For the same compound, the “52,000 MW (R^II) receptor protein, in words” value in assay [15] (three days, 10 microM) is “increased appreciably”.

What is called inhibition is the share of the control response that was lost under treatment.
